The source of these data is patent publication US20050118226A1, “Methods for treating ACAT-related diseases” (priority 2003, published 2005).

Structures are written as SMILES. “Also recorded” adds a separate entry of the source.

One test relates to Aβ1-40 and Aβ1-42. Description: Sandwich ELISA of brain Aβ1-40 and Aβ1-42 in hAPP mice. Type of test: in vivo, mouse. The protocol:
For Aβ determinations, frozen hemispheres were first homogenized in TBS-buffer (5 ml) containing a protease inhibitor cocktail (Protease Inhibitor Cocktail Set I, Calbiochem) and then centrifuged at 75000 g for 1 hour, as described elsewhere (Kawarabayashi et al., 2001). Supernatants were saved for soluble Aβ analyses (see below). Pellets were resuspended and further homogenized in 70% formic acid (1 ml), followed by centrifugation at 75000 g for 1 hour. Formic acid-supernatants were neutralized with 1M TRIS (19 ml) and used for ELISA determination (insoluble Aβ). Aβ1-40 and Aβ1-42 were assayed using commercially available ELISA kits (The Genetics Company®, Switzerland). Measurements were performed at least in duplicate. Soluble Aβ ELISAs: secreted Aβ1-40 and Aβ1-42 levels in the TBS homogenate were analyzed by a sandwich ELISA system as described previously using the following antibodies: Aβ40=MM27 33.1.1 capture, MM32 13.1.1 for detection; Aβ42=MM27 33.1.1 capture, MM26 4.1.3 for detection (Suzuki et al., 1994).
We next used a sandwich enzyme-linked immunosorbent assay (ELISA) to measure Aβ1-40 and Aβ1-42 levels in 70% formic acid extracts from brain homogenates (“insoluble” Aβ) and in the initial TBS fraction of the same homogenates (soluble Aβ). Similar to plaque load, Aβ levels varied widely, as expected in transgenic mice specifically at early stages of pathology (Johnson-Wood et al., 1997; Kawarabayashi et al., 2001). Treatment with CP-113,818 decreased Aβ1-40 and Aβ1-42 in the formic acid fraction to almost undetectable concentrations. […] Since brain extracts were obtained from entire hemispheres including cortices and hippocampi, the difference between male and female Aβ levels at this age was accentuated by the slowly developing amyloid pathology in male hippocampi (see FIG. 3B). When analyzed according to gender, only female “insoluble” Aβ was sufficiently elevated to obtain a highly significant decrease by CP-113,818 treatment, with Aβ1-40 down by 96% (p<0.014) and Aβ1-42 down by 90% (p<0.014; FIG. 5A). […] This decrease was statistically significant in both genders. Soluble Aβ1-40 levels were close to the limit of detection, but a trend toward decrease was observed (20%) in all animals, significant only in males (FIG. 5B).
On the technique in general: ELISA stands for enzyme-linked immunosorbent assay.

The subject of the next test is synaptophysin. As to the kind of experiment: Synaptophysin immunoreactivity in hippocampal CA1 region. Type of test: in vivo, mouse. As to conditions: CA1 layer of hippocampus, hAPP mice, vs placebo. The protocol: For histomorphological analyses, 8 to 15 histological sections (10 μm) were prepared from one hemisphere of 12 animals (6 placebo, 6 CP-113,818; 3 male, 3 female per group). Number and surface area of amyloid plaques were evaluated in both cortex and hippocampus. 6E10 (Signet; 1:5000; monoclonal) as primary antibody, and Cy™3 fluorescent goat anti-mouse IgG as secondary antibody (Jackson Immuno Research) were used for Aβ staining. Sections of the same brains were also used for synaptophysin staining (Chemicon; 1:5000; monoclonal). Synaptophysin immunoreactive spots were counted by light microscopy in the hippocampal CA1 region. The estimation of immunohistochemical reactions was done by computer-assisted quantification (IMAGE PRO PLUS, Media Cybernetics).

The next test relates to γ-secretase. Description: In vitro generation of APP intracellular domain (AICD), γ-secretase activity assay on CHO cell membrane fractions. The format is biochemical, Chinese hamster. As to conditions: CHO cell (overexpressing APP) membrane fractions, increasing amounts of compound. The procedure: Membrane preparation and in vitro generation of AICD were performed as described (Gu et al., 2001; Kim et al., 2002). P2 membrane fractions were prepared from CHO cells overexpressing wild type APP and resuspended in Buffer H (20 mM HEPES, 150 mM NaCl, 10% glycerol, 5 mM EDTA, pH 7.4) with protease inhibitors. In vitro cleavage experiments were performed by incubating the membrane fractions at 0° C. or 37° C. for 1 hour with the indicated amounts of CP-113,818. As a negative control, a specific γ-secretase inhibitor, L-685,458, was added to one of the samples.

The mark [1] stands for this setting: female hAPP mice, brain formic acid extracts.
Setting [2] is: hAPP mice, all animals, brain formic acid extracts.

In the case of `CCCCCCCC[C@H](SCCCCCC)C(=O)Nc1c(SC)cc(C)nc1SC` [CP-113,818], in the test on Aβ1-40 and Aβ1-42 (setting [1]), the “decrease in insoluble Aβ1-40, females” value is recorded as 96% and the “decrease in insoluble Aβ1-42, females” value came to 90%. Besides, in the test on Aβ1-40 and Aβ1-42 (hAPP mice, TBS fraction lacking detergents), the “reduction of soluble Aβ1-42” value turned out to be 34%. Further, in the test with Aβ1-40 and Aβ1-42 (setting [2]), the “decrease in insoluble Aβ1-40” value is on record as 92% and the “decrease in insoluble Aβ1-42” value stood at 83%. The Aβ1-42/Aβ1-40 ratio entry with Aβ1-40 and Aβ1-42 (hAPP mice, insoluble Aβ) was “no significant difference”. Besides, the “decrease of "insoluble" Aβ (summary)” value in the test with Aβ1-40 and Aβ1-42 (transgenic mice) is reported as 83-99%. Also, in the test on synaptophysin, the “synaptic density as synaptophysin immunoreactivity” value is reported as “did not induce significant changes; also recorded: unchanged”. Moreover, the “effect on γ-secretase activity (AICD generation) in vitro” value in the test on γ-secretase is on record as “unaffected; also recorded: no direct effect”.
